From ChEMBL document CHEMBL5608215, “Development of amphipathic derivatives of thymol and carvacrol as potent broad-spectrum antibacterial agents” (Eur J Med Chem, 2024)
The source made the active and inactive calls. The rule behind the calls is not given here.

Columns and labels:
[1] = system: Staphylococcus aureus; assay: Antibacterial activity against Staphylococcus aureus ATCC29213 infected in mouse model assessed as bacterial load in abscesses at 5 mg/kg, sc measured after 24 hrs; assay type: functional
[2] = system: Staphylococcus aureus; assay: Antibacterial activity against Staphylococcus aureus ATCC29213 assessed as leakage of cell contents at 8 times MIC by SEM analysis; assay type: functional, organism-based
[3] = system: Staphylococcus aureus; assay: Antibacterial activity against Staphylococcus aureus ATCC29213 infected in mouse model assessed as reduction in abscesses size at 5 to 10 mg/kg, sc measured after 24 hrs; assay type: functional, organism-based; conditions: dose 5-10 mg/kg
[4] = system: Enterococcus faecalis; assay: Antibacterial activity against Enterococcus faecalis ATCC29212 by CLSI based serial dilution method; assay type: functional
[5] = system: Staphylococcus aureus; assay: Antibacterial activity against Staphylococcus aureus ATCC29213 assessed as cell surface disruption at 8 times MIC by SEM analysis; assay type: functional, organism-based
[6] = system: Staphylococcus aureus; assay: Antibacterial activity against Staphylococcus aureus ATCC29213 infected in mouse model assessed as bacterial concentration at 10 mg/kg, sc measured after 24 hrs (reference value: 10^10.13 CFU/g); assay type: functional
[7] = Toxicity in KM mouse assessed as damage in liver upto 40 mg/kg, ip measured for 24 hrs by H and E staining based analysis; assay type: organism-based; conditions: in vivo
[8] = Toxicity in KM mouse assessed as histopathological abnormality in spleen upto 40 mg/kg, ip measured for 24 hrs by H and E staining based analysis; assay type: organism-based; conditions: in vivo
[9] = system: Pseudomonas aeruginosa; assay: Anti-biofilm activity against Pseudomonas aeruginosa ATCC27853 assessed as biofilm formation rate at 8 times MIC incubated for 48 hrs by crystal violet staining based analysis relative to control; assay type: functional
[10] = system: Staphylococcus aureus; assay: Antibacterial activity against Staphylococcus aureus ATCC29213 infected in mouse model assessed as normalization of skin cell morphology at 5 to 10 mg/kg, sc measured after 24 hrs by H and E staining based analysis; assay type: functional, organism-based; conditions: dose 5-10 mg/kg
[11] = Toxicity in KM mouse assessed as damage in kidney upto 40 mg/kg, ip measured for 24 hrs by H and E staining based analysis; assay type: organism-based; conditions: in vivo
[12] = system: Enterococcus faecalis; assay: Antibacterial activity against Enterococcus faecalis ATCC29212 assessed as leakage of cell contents at 8 times MIC by SEM analysis; assay type: functional, organism-based
[13] = system: Staphylococcus aureus; assay: Antibacterial activity against methicillin-resistant Staphylococcus aureus 21-5 by CLSI based serial dilution method; assay type: functional
[14] = system: Staphylococcus aureus; assay: Bactericidal activity against Staphylococcus aureus ATCC29213 at 8 times MIC incubated for 24 hrs by time-kill assay relative to control; assay type: functional
[15] = system: Escherichia coli; assay: Bactericidal activity against Escherichia coli ATCC25922 at MIC incubated for 24 hrs by time-kill assay relative to control; assay type: functional
[16] = system: Staphylococcus aureus; assay: Antibacterial activity against Staphylococcus aureus ATCC29213 infected in mouse model assessed as reduction in inflammatory factors in skin at 5 to 10 mg/kg, sc measured after 24 hrs by H and E staining based analysis; assay type: functional, organism-based; conditions: dose 5-10 mg/kg
[17] = Toxicity in KM mouse assessed as histopathological abnormality in liver upto 40 mg/kg, ip measured for 24 hrs by H and E staining based analysis; assay type: organism-based; conditions: in vivo
[18] = system: Escherichia coli; assay: Bactericidal activity against Escherichia coli ATCC25922 incubated upto 24 hrs by time-kill assay; assay type: functional, organism-based
[19] = system: Staphylococcus aureus; assay: Antibacterial activity against Staphylococcus aureus ATCC29213 by CLSI based serial dilution method; assay type: functional
[20] = system: Staphylococcus aureus; assay: Bactericidal activity against Staphylococcus aureus ATCC29213 incubated upto 24 hrs by time-kill assay; assay type: functional, organism-based
[21] = Toxicity in KM mouse assessed as histopathological abnormality in kidney upto 40 mg/kg, ip measured for 24 hrs by H and E staining based analysis; assay type: organism-based; conditions: in vivo
[22] = Cytotoxicity against HUVEC cells assessed as cell viability at 32 ug/ml incubated for 24 hrs by CCK8 assay relative to control; assay type: toxicity, cell-based; conditions: human, at 32 µg/mL, read-out: Activity
[23] = system: Escherichia coli; assay: Antibacterial activity against Escherichia coli ATCC25922 assessed as cell membrane damage incubated for 8 mins by SYTOX Green uptake assay; assay type: functional, organism-based
[24] = system: Staphylococcus aureus; assay: Antibacterial activity against Staphylococcus aureus ATCC29213 infected in mouse model assessed as bacterial concentration at 5 mg/kg, sc measured after 24 hrs (reference value: 10^10.13 CFU/g); assay type: functional
[25] = system: Staphylococcus aureus; assay: Antibacterial activity against Staphylococcus aureus ATCC29213 assessed as cell membrane damage incubated for 8 mins by SYTOX Green uptake assay; assay type: functional, organism-based
[26] = system: Escherichia coli; assay: Bactericidal activity against Escherichia coli ATCC25922 at MIC incubated for 12 hrs by time-kill assay relative to control; assay type: functional
[27] = system: Escherichia coli; assay: Bactericidal activity against Escherichia coli ATCC25922 assessed as inhibition of bacterial regrowth at 8 times MIC incubated for 24 hrs by time-kill assay; assay type: functional, organism-based
[28] = Selectivity ratio of cytotoxicity against HUVEC cells for to MIC for Staphylococcus aureus ATCC29213; assay type: toxicity, cell-based; conditions: human
[29] = system: Staphylococcus aureus; assay: Antibacterial activity against Staphylococcus aureus ATCC29213 infected in mouse model assessed as uniform smooth skin at 5 to 10 mg/kg, sc measured after 24 hrs; assay type: functional, organism-based; conditions: dose 5-10 mg/kg
[30] = system: Enterococcus faecalis; assay: Antibacterial activity against Enterococcus faecalis ATCC29212 assessed as cell surface disruption at 8 times MIC by SEM analysis; assay type: functional, organism-based
[31] = system: Staphylococcus aureus; assay: Antibacterial activity against Staphylococcus aureus ATCC29213 in plasma pretreated plasma with compound for 6 hrs followed by bacterial infection into plasma; assay type: functional, organism-based
[32] = system: Staphylococcus aureus; assay: Antibacterial activity against Staphylococcus aureus ATCC29213 infected in mouse model assessed as bacterial load in abscesses at 10 mg/kg, sc measured after 24 hrs; assay type: functional
[33] = system: Pseudomonas aeruginosa; assay: Antibacterial activity against Pseudomonas aeruginosa ATCC27853 by CLSI based serial dilution method; assay type: functional
[34] = system: Staphylococcus aureus; assay: Antibacterial activity against Staphylococcus aureus ATCC29213 assessed as cell membrane damage at 8 times MIC by NucGreen/EthD-III staining based analysis; assay type: functional, organism-based
[35] = system: Staphylococcus aureus; assay: Antibacterial activity against Staphylococcus aureus ATCC29213 assessed as cell surface wrinkling at 8 times MIC by SEM analysis; assay type: functional, organism-based
[36] = system: Escherichia coli; assay: Bactericidal activity against Escherichia coli ATCC25922 at 8 times MIC incubated for 12 hrs by time-kill assay relative to control; assay type: functional
[37] = system: Escherichia coli; assay: Bactericidal activity against Escherichia coli ATCC25922 assessed as log reduction in bacterial growth at MIC incubated for 12 hrs by time-kill assay; assay type: functional
[38] = Hemolytic activity against rabbit RBC incubated for 1 hr by absorbance based assay; assay type: toxicity, cell-based, Oryctolagus cuniculus, Erythrocyte; conditions: rabbit red blood cells (erythrocytes)
[39] = system: Staphylococcus aureus; assay: Antibacterial activity against Staphylococcus aureus ATCC25923 upto 32 ug/ml incubated for 16 to 18 hrs in presence of cardiolipin; assay type: functional, organism-based; conditions: dose <= 32.0 µg/ml, time 16-18 hrs
[40] = Toxicity in KM mouse assessed as damage in lung upto 40 mg/kg, ip measured for 24 hrs by H and E staining based analysis; assay type: organism-based; conditions: in vivo
[41] = Toxicity in KM mouse assessed as normal condition upto 40 mg/kg, ip measured for 24 hrs; assay type: organism-based; conditions: in vivo
[42] = system: Staphylococcus aureus; assay: Antibacterial activity against Staphylococcus aureus ATCC25923 upto 32 ug/ml incubated for 16 to 18 hrs in presence of phosphatidylglycerol; assay type: functional, organism-based; conditions: dose <= 32.0 µg/ml, time 16-18 hrs
[43] = system: Staphylococcus aureus; assay: Antibacterial activity against Staphylococcus aureus ATCC29213 infected in mouse model assessed as bacterial load reduction in abscesses at 10 mg/kg, sc measured after 24 hrs relative to control; assay type: functional; design: scale not given: the % may be the effect or the level left

CCCCCCCNC(=O)C[N+](C)(C)CCCCOc1cc(C)ccc1C(C)C.[Br-]
Activity [1]: 2.14 log10CFU/g | Activity [2]: Active | Activity [3]: Active | MIC [4]: 1 µg/mL | Activity [5]: Active | Activity [6]: ~1 10^7.67CFU/g | Activity [7]: Non-Toxic | Activity [8]: Non-Toxic | Activity [9]: 22.3% | Activity [10]: Active | Activity [11]: Non-Toxic | Activity [12]: Active | MIC [13]: 4 µg/mL | Activity [14]: >99.9% | Activity [15]: 100% | Activity [16]: Active | Activity [17]: Non-Toxic | Activity [18]: Dose-Dependent Effect | MIC [19]: 0.5 µg/mL | Activity [20]: Dose-Dependent Effect | Activity [21]: Non-Toxic | viability at 24 h, 32 ug/ml [22]: 68.7% | Activity [23]: Dose-Dependent Effect | Activity [24]: ~1 10^7.99CFU/g | Activity [25]: Dose-Dependent Effect | Activity [26]: 99.99% | inhibition [27]: Active | selectivity ratio [28]: 64 | Activity [29]: Active | Activity [30]: Active | Activity [31]: Active | Activity [32]: 2.46 log10CFU/g | MIC [33]: 8 µg/mL | Activity [34]: Active | Activity [35]: Active | Activity [36]: 100% | Activity [37]: >4 log10CFU/ml | HC50 at 1 h [38]: 472 µg/mL | Activity [39]: inactive | Activity [40]: Non-Toxic | Activity [41]: Non-Toxic | Activity [42]: inactive | Activity [43]: 99.65%
